Experiments:
DIPGX29 = H3.3 K27M diffuse intrinsic pontine glioma line; test: growth inhibition relative to DMSO (0) and positive control (1) (fraction); higher = more growth inhibition
Procedure: (§1)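 Paxalisib (GDC0084) x mirdametinib (PD0325901) dose matrix on pHGG cell lines and astrocyte controls, 7 days, adherent 384-well. CellTiter-Glo RLU was normalised (no log2) to fractional activity between DMSO (0) and the positive control (1). Each combination was tested in two plate orientations.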

DIPGX37 = H3.3 K27M diffuse intrinsic pontine glioma line; test: as above
Procedure: as §1

O=C(NOC[C@H](O)CO)c1ccc(F)c(F)c1Nc1ccc(I)cc1F + CC1(C)OCCn2c1nc1c(N3CCOCC3)nc(-c3cnc(N)nc3)nc12 [GDC0084]
growth inhibition
Details	compound 1 concentration 0.009766 µM	compound 1 concentration 0.01953 µM	compound 1 concentration 0.03906 µM	compound 1 concentration 0.07812 µM	compound 1 concentration 0.15625 µM	compound 1 concentration 0.3125 µM	compound 1 concentration 0.625 µM	compound 1 concentration 1.25 µM	compound 1 concentration 5 µM	compound 1 concentration 20 µM
DIPGX29, compound 2 concentration 0.03906 µM	0.638	0.646	0.648	0.701	0.69	0.738	0.748	0.755	0.895	0.958
DIPGX29, compound 2 concentration 0.07812 µM	0.15	0.207	0.157	0.241	0.208	0.306	0.424	0.498	0.796	0.919
DIPGX29, compound 2 concentration 0.15625 µM	0.213	0.194	0.204	0.242	0.215	0.307	0.451	0.518	0.813	0.909
DIPGX29, compound 2 concentration 0.3125 µM	0.306	0.272	0.343	0.357	0.359	0.415	0.506	0.652	0.859	0.947
DIPGX29, compound 2 concentration 0.625 µM	0.411	0.38	0.431	0.462	0.487	0.495	0.632	0.697	0.917	0.981
DIPGX29, compound 2 concentration 1.25 µM	0.531	0.526	0.609	0.603	0.627	0.625	0.79	0.803	0.952	0.985
DIPGX29, compound 2 concentration 5 µM	0.911	0.936	0.919	0.945	0.966	0.973	0.966	0.993	0.999	1
DIPGX29, compound 2 concentration 20 µM	0.933	0.947	0.948	0.968	0.964	0.984	0.989	0.996	1	1
DIPGX37, compound 2 concentration 0.03906 µM	-0.0653	-0.109	0.00889	0.0388	0.199	0.341	0.484	0.642	0.948	0.988
DIPGX37, compound 2 concentration 0.07812 µM	0.157	0.133	0.163	0.275	0.352	0.487	0.599	0.725	0.959	0.993
DIPGX37, compound 2 concentration 0.15625 µM	0.264	0.281	0.316	0.412	0.485	0.618	0.728	0.829	0.983	0.997
DIPGX37, compound 2 concentration 0.3125 µM	0.446	0.454	0.5	0.586	0.657	0.767	0.859	0.926	0.997	1
DIPGX37, compound 2 concentration 0.625 µM	0.589	0.585	0.62	0.71	0.777	0.871	0.937	0.97	1	1
DIPGX37, compound 2 concentration 1.25 µM	0.75	0.791	0.815	0.864	0.908	0.951	0.976	0.996	1	1
DIPGX37, compound 2 concentration 5 µM	0.965	0.975	0.988	0.995	0.999	1	1	1	1	1
DIPGX37, compound 2 concentration 20 µM	0.996	0.998	0.998	0.996	0.998	0.997	0.997	0.997	0.998	1

CC1(C)OCCn2c1nc1c(N3CCOCC3)nc(-c3cnc(N)nc3)nc12 [GDC0084] + O=C(NOC[C@H](O)CO)c1ccc(F)c(F)c1Nc1ccc(I)cc1F [PD0325901]
growth inhibition
Details	compound 1 concentration 0.009766 µM	compound 1 concentration 0.01953 µM	compound 1 concentration 0.03906 µM	compound 1 concentration 0.07812 µM	compound 1 concentration 0.15625 µM	compound 1 concentration 0.3125 µM	compound 1 concentration 0.625 µM	compound 1 concentration 1.25 µM	compound 1 concentration 5 µM	compound 1 concentration 20 µM
DIPGX29, compound 2 concentration 0.03906 µM	0.0494	0.0257	0.0988	0.197	0.244	0.304	0.508	0.598	0.891	0.96
DIPGX29, compound 2 concentration 0.07812 µM	0.246	0.221	0.24	0.295	0.368	0.426	0.565	0.653	0.915	0.964
DIPGX29, compound 2 concentration 0.15625 µM	0.138	0.16	0.18	0.286	0.308	0.402	0.515	0.704	0.92	0.97
DIPGX29, compound 2 concentration 0.3125 µM	0.198	0.252	0.293	0.316	0.389	0.507	0.616	0.696	0.949	0.981
DIPGX29, compound 2 concentration 0.625 µM	0.331	0.369	0.463	0.439	0.481	0.54	0.619	0.781	0.967	0.993
DIPGX29, compound 2 concentration 1.25 µM	0.511	0.539	0.543	0.583	0.62	0.67	0.806	0.869	0.983	0.999
DIPGX29, compound 2 concentration 5 µM	0.801	0.807	0.824	0.837	0.855	0.88	0.924	0.956	0.997	0.997
DIPGX29, compound 2 concentration 20 µM	0.903	0.914	0.9	0.927	0.923	0.969	0.97	0.989	1	1
DIPGX37, compound 2 concentration 0.03906 µM	-0.147	-0.0916	-0.0557	0.033	0.217	0.429	0.588	0.762	0.979	1
DIPGX37, compound 2 concentration 0.07812 µM	-0.0133	0.012	0.0971	0.209	0.356	0.514	0.694	0.823	0.99	1
DIPGX37, compound 2 concentration 0.15625 µM	0.0798	0.113	0.192	0.297	0.433	0.58	0.744	0.879	0.999	1
DIPGX37, compound 2 concentration 0.3125 µM	0.186	0.271	0.3	0.445	0.556	0.699	0.84	0.924	1	1
DIPGX37, compound 2 concentration 0.625 µM	0.277	0.368	0.441	0.522	0.6	0.787	0.891	0.948	1	1
DIPGX37, compound 2 concentration 1.25 µM	0.458	0.508	0.592	0.657	0.743	0.882	0.953	0.984	1	1
DIPGX37, compound 2 concentration 5 µM	0.832	0.876	0.906	0.917	0.94	0.986	1	1	1	1
DIPGX37, compound 2 concentration 20 µM	0.97	0.98	0.984	0.994	0.997	1	1	1	1	1

Source: the supplement of paper PMC8253809
